Key:
[1] = system: pentobarbital-anesthetized rats; assay: Test Case 9: effects on the blood pressure and heart rate in pentobarbital-anesthetized rats; format: in vivo, rat; details: anesthetized male SD rats; 3 mg/kg intravenous over 30 seconds; maximum change, mean±standard deviation
Male C57BL/6 Cr mice = assay: Test Case 10: mouse piloerection test; format: in vivo; details: 10 mg/kg i.v.

Structure (SMILES): Cc1n[nH]c2cc(OCCNC[C@H](O)c3cccc(NS(=O)(=O)C4CCC4)c3)ccc12 [ex3, (R)—N-(3-(1-hydroxy-2-(2-(3-methylindazol-6-yloxy)ethylamino)ethyl)phenyl)cyclobutanesulfonamide]
- increase in MBP (%) [1]: 2.0 ± 1.6%
- number of experimental animals matching Score 0 (no piloerection) (Male C57BL/6 Cr mice; n=4, observation time 5 min): 4
- number of experimental animals matching Score 0 (no piloerection) (Male C57BL/6 Cr mice; n=4, observation time 15 min): 3
- number of experimental animals matching Score 0.5 (Male C57BL/6 Cr mice; n=4, observation time 15 min): 1
- number of experimental animals matching Score 0 (no piloerection) (Male C57BL/6 Cr mice; n=4, observation time 30 min): 3
- number of experimental animals matching Score 0.5 (Male C57BL/6 Cr mice; n=4, observation time 30 min): 1
- number of experimental animals matching Score 0 (no piloerection) (Male C57BL/6 Cr mice; n=4, observation time 60 min): 4

Structure (SMILES): Cc1n[nH]c2cc(OCCNC[C@H](O)c3cccc(NS(=O)(=O)c4ccccc4F)c3)ccc12 [ex235, (R)-2-fluoro-N-(3-(1-hydroxy-2-(2-(3-methylindazol-6-yloxy)ethylamino)ethyl)phenyl)benzenesulfonamide]
- increase in MBP (%) [1]: 3.4 ± 1.0%
- number of experimental animals matching Score 0 (no piloerection) (Male C57BL/6 Cr mice; n=4, observation time 5 min): 4
- number of experimental animals matching Score 0 (no piloerection) (Male C57BL/6 Cr mice; n=4, observation time 15 min): 4
- number of experimental animals matching Score 0 (no piloerection) (Male C57BL/6 Cr mice; n=4, observation time 30 min): 4
- number of experimental animals matching Score 0 (no piloerection) (Male C57BL/6 Cr mice; n=4, observation time 60 min): 4

Structure (SMILES): O=S(=O)(Nc1cccc([C@@H](O)CNCCOc2ccc3c(OC(F)F)n[nH]c3c2)c1)C1CC1 [ex4, (R)—N-(3-(2-(2-(3-(difluoromethoxy)-indazol-6-yloxy)ethylamino)-1-hydroxyethyl)phenyl)cyclopropanesulfonamide]
- increase in MBP (%) [1]: 2.4 ± 2.2%
- number of experimental animals matching Score 0 (no piloerection) (Male C57BL/6 Cr mice; n=4, observation time 5 min): 4
- number of experimental animals matching Score 0 (no piloerection) (Male C57BL/6 Cr mice; n=4, observation time 15 min): 4
- number of experimental animals matching Score 0 (no piloerection) (Male C57BL/6 Cr mice; n=4, observation time 30 min): 3
- number of experimental animals matching Score 0.5 (Male C57BL/6 Cr mice; n=4, observation time 30 min): 1
- number of experimental animals matching Score 0 (no piloerection) (Male C57BL/6 Cr mice; n=4, observation time 60 min): 3
- number of experimental animals matching Score 0.5 (Male C57BL/6 Cr mice; n=4, observation time 60 min): 1

— patent publication US20120225909A1, “INDAZOLE ANALOG” (priority 2009, published 2012)
